{"source": "BindingDB's records for doi:10.1021/jm060189a", "about": "(Abbott Laboratories, 2006)", "target": "Adenosine kinase (Rattus norvegicus, UniProt Q64640)", "sequence (Q64640 whole entry)": "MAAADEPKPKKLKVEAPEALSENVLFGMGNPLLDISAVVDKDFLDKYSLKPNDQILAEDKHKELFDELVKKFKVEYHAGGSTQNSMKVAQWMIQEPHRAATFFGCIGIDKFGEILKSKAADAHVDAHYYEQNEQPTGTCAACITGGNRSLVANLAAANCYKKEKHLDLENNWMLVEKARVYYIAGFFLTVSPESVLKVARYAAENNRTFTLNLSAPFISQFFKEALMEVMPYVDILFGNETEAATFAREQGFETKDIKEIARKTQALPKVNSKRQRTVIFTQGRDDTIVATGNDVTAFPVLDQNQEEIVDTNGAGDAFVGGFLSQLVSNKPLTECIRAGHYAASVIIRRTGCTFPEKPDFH", "assay": "ADK Inhibition Assay", "settings": "pH 7.5; 23 °C", "experimental": "ADK activity was monitored by a radiochemical assay, which measures the conversion of radioactive Ado ([U-14C] adenosine or [2-3H] adenosine) to AMP in the presence of ATP and MgCl2. The radioactivity incorporated was directly proportional to the conversion rate. The reaction was terminated by aliquoting the reaction mixture onto DE-81 anion exchange filter disks. The filter disks were then dried, washed, and counted. Bound radioactivity was determined by standard scintillation spectrometry at an efficiency of 55%."}
{"molecule": "Cc1nc(N)c(-c2ccccc2)c(C#Cc2ccc(N(C)C)cc2)n1", "values": [{"measurement": "IC50", "value": "> 1000", "unit": "nM"}]}
